Experimental data: BindingDB's records for doi:10.1021/jm00057a008 (American Cyanamid, 1993)

molecular target: Platelet-activating factor receptor (Oryctolagus cuniculus); experiment: Inhibition of PAF-induced platelet aggregation in rabbit platelet rich plasma

Compound | IC50 [µM]
CCCCCCCCCCCCCCOc1ccc(C(=O)N(Cc2cccc[n+]2C)C(C)=O)cc1OCCCCCCCCCCCCCC [2-{[Acetyl-(3,4-bis-tetradecyloxy-benzoyl)-amino]-methyl}-1-methyl-pyridinium; iodide] | > 10
CCCCCCCCCCCCCCOc1ccc(C(=O)N(Cc2cccc[n+]2[O-])C(C)=O)cc1C(C)(C)C [N-Acetyl-3-tert-butyl-N-(1-oxy-pyridin-2-ylmethyl)-4-tetradecyloxy-benzamide] | > 10
CCCCCCCCCCCCCCOc1ccc(C(=O)NCc2cccc[n+]2C)cc1 [1-Methyl-2-[(4-tetradecyloxy-benzoylamino)-methyl]-pyridinium; iodide] | > 10
CCCCCCCCCCCCCCOc1ccc(CN(Cc2ccc[n+](C)c2)C(C)=O)cc1 [3-{[Acetyl-(4-tetradecyloxy-benzyl)-amino]-methyl}-1-methyl-pyridinium; iodide] | > 10
CCCCCCCCCCCCCCOc1ccc(C(=O)NCCc2cccc[n+]2C)cc1 [1-Methyl-2-[2-(4-tetradecyloxy-benzoylamino)-ethyl]-pyridinium; iodide] | > 10
CCCCCCCCCCCCCCOc1ccc(CC(=O)NCc2cccc[n+]2C)cc1 [1-Methyl-2-{[2-(4-tetradecyloxy-phenyl)-acetylamino]-methyl}-pyridinium; iodide] | > 10
CCCCCCCCCCCCCCCCCCNC(=O)Oc1ccc(C(=O)N(Cc2cccc[n+]2C)C(C)=O)cc1C(C)(C)C [2-{[Acetyl-(3-tert-butyl-4-octadecylcarbamoyloxy-benzoyl)-amino]-methyl}-1-methyl-pyridinium; iodide] | > 10
CCCCCCCCCCCCCCOc1ccc(C(=O)NC(=O)c2ccc[n+](CCC)c2)cc1OC [3-(3-Methoxy-4-tetradecyloxy-benzoylaminocarbonyl)-1-propyl-pyridinium; iodide] | > 10
CCCCCCCCCCCCCCOc1ccc(CNC(=O)c2cccc[n+]2CC)cc1 [Trifluoro-methanesulfonate1-ethyl-2-(4-tetradecyloxy-benzylcarbamoyl)-pyridinium;] | > 10
CCCCCCCCCCCCCCOc1ccc(COC(=O)N(Cc2cccc[n+]2C)C(C)=O)cc1 [2-{[Acetyl-(4-tetradecyloxy-benzyloxycarbonyl)-amino]-methyl}-1-methyl-pyridinium; iodide] | > 10
CCCCCCCCCCCCCCOc1ccc(COC(=O)NCc2cccc[n+]2CC)cc1 [Trifluoro-methanesulfonate1-ethyl-2-[(4-tetradecyloxy-benzyloxycarbonylamino)-methyl]-pyridinium;] | > 10
CCCCCCCCCCCCCCOc1ccc(C(=O)N(Cc2cccc[n+]2Cc2ccccc2)C(C)=O)cc1 [2-{[Acetyl-(4-tetradecyloxy-benzoyl)-amino]-methyl}-1-benzyl-pyridinium; bromide] | 330

More lines, in order of falling IC50, values ahead:

IC50 [µM] | Compound
160 | CCCCCCCCCCCCCCOc1cc(C(=O)N(Cc2cccc[n+]2C)C(C)=O)ccc1OC [2-{[Acetyl-(4-methoxy-3-tetradecyloxy-benzoyl)-amino]-methyl}-1-methyl-pyridinium; iodide]
60 | CCCCCCCCCCCCCCOc1ccc(CNC(=O)c2cc[n+](C)cc2)cc1 [1-Methyl-4-(4-tetradecyloxy-benzylcarbamoyl)-pyridinium; iodide]
43 | CCCCCCCCCCCCCCOc1ccccc1CN(Cc1cccc[n+]1C)C(C)=O [2-{[Acetyl-(2-tetradecyloxy-benzyl)-amino]-methyl}-1-methyl-pyridinium; iodide]
20 | CCCCCCCCCCCCCCOc1ccc(C(=O)N(Cc2ccc[n+](C)c2)C(C)=O)cc1C(C)(C)C [3-{[Acetyl-(3-tert-butyl-4-tetradecyloxy-benzoyl)-amino]-methyl}-1-methyl-pyridinium; iodide]
15 | CCCCCCCCCCCCCCOc1ccc(CC(=O)NCCc2cccc[n+]2C)cc1 [1-Methyl-2-{2-[2-(4-tetradecyloxy-phenyl)-acetylamino]-ethyl}-pyridinium; iodide]
10 | CCCCCCCCCCOc1ccc(C(=O)N(Cc2cccc[n+]2C)C(C)=O)cc1C(C)(C)C [2-{[Acetyl-(3-tert-butyl-4-decyloxy-benzoyl)-amino]-methyl}-1-methyl-pyridinium; iodide]
8.3 | CCCCCCCCCCCCCCOc1ccc(CN(Cc2cccc[n+]2CC)C(C)=O)cc1 [2-{[Acetyl-(4-tetradecyloxy-benzyl)-amino]-methyl}-1-ethyl-pyridinium; iodide]
6.8 | CCCCCCCCCCCCCCOc1ccc(C(=O)N(Cc2ccc[n+](C)c2)C(C)=O)cc1 [3-{[Acetyl-(4-tetradecyloxy-benzoyl)-amino]-methyl}-1-methyl-pyridinium; iodide]
3.7 | CCCCCCCOc1ccc(C(=O)N(Cc2cccc[n+]2C)C(C)=O)cc1OCCCCCCC [2-{[Acetyl-(3,4-bis-heptyloxy-benzoyl)-amino]-methyl}-1-methyl-pyridinium; iodide]
1 | CCCCCCCCCCCCCCOc1ccc(CN(Cc2cc[n+](C)cc2)C(C)=O)cc1 [4-{[Acetyl-(4-tetradecyloxy-benzyl)-amino]-methyl}-1-methyl-pyridinium; iodide]
0.95 | CCCCCCCCCCCCCCOc1ccc(C(=O)N(Cc2cccc[n+]2C)C(C)=O)cc1 [2-{[Acetyl-(4-tetradecyloxy-benzoyl)-amino]-methyl}-1-methyl-pyridinium; iodide]
0.16 | CCCCCCCCCCCCCCOc1ccc(C(=O)N(Cc2cccc[n+]2CC)C(C)=O)cc1OC [2-{[Acetyl-(3-methoxy-4-tetradecyloxy-benzoyl)-amino]-methyl}-1-ethyl-pyridinium; iodide]
0.1 | CCCCCCCCCCCCCCOc1ccc(C(=O)N(Cc2cccc[n+]2CCC)C(C)=O)cc1OC [Trifluoro-methanesulfonate2-{[acetyl-(3-methoxy-4-tetradecyloxy-benzoyl)-amino]-methyl}-1-propyl-pyridinium;]
0.064 | CCCCCCCCCCCCCCOc1ccc(C(=O)N(Cc2cccc[n+]2C)C(C)=O)cc1OC [2-{[Acetyl-(3-methoxy-4-tetradecyloxy-benzoyl)-amino]-methyl}-1-methyl-pyridinium; iodide]
0.022 | CCCCCCCCCCCCCCOc1ccc(C(=O)N(Cc2cccc[n+]2C)C(C)=O)cc1C(C)(C)C [2-{[Acetyl-(3-tert-butyl-4-tetradecyloxy-benzoyl)-amino]-methyl}-1-methyl-pyridinium; iodide]
